# Values quoted from earlier work as cited in patent US8071763B2, “Methods for treatment of nocturia” (Daiichi Sankyo Company, Limited, priority 2002, dated 2011).
# Like-named read-outs stand apart in the source and are kept apart here.
# Assays:
# [1] = tested on: nocturia; conditions: 100 mg suppository, open trial, 15 patients; cited from earlier work
# [2] = tested on: nocturia; conditions: one patient; suppository administered as antipyretics; cited from earlier work
compound,measurement,setting,value
COc1ccc2c(c1)c(CC(=O)O)c(C)n2C(=O)c1ccc(Cl)cc1 [indomethacin],Effect on nocturia,[1],improved nocturia in all 15 patients
same,Effect on nocturia,[2],nocturia was improved
